SMILES strings stand for the structures. Peptide text beside a SMILES is read from it.

In test [1] the test system is cortical photothrombotic stroke in mice. The test is described as follows: Rose Bengal-mediated cortical photothrombotic stroke (CPS) model. Format: in vivo, mouse. Conditions: n = 6; for blood flow reduction (cerebral): laser speckle perfusion, vehicle 40.1%. Here is the method:
The C57BL/6J mice (male, 6–8 weeks old) were purchased from Beijing Vital River Laboratory Animal Technology Co., Ltd. (Beijing, China). All animal studies were performed under the approval of the Ethics Committee of the Laboratory Animal Welfare of the Kunming Institute of Zoology, Chinese Academy of Sciences (IACUC-RE-2025-03-010).
The Rose Bengal-mediated CPS model was employed to induce focal cerebral ischemia in mice. Rose Bengal (50 mg/kg), a photosensitive dye, was administered intravenously 1 h before the surgery, followed by an intravenous injection of PBS (vehicle control), GC38 (2 or 4 mg/kg), and heparin sodium (1000 U/kg) 10 min before the surgery. Briefly, mice were anesthetized and secured in a stereotaxic frame. A midline scalp incision was made to expose the skull, followed by illumination with a 562 nm yellow-green laser (R-LG561-100-A5, RWD Life Science, Shenzhen, China) for 7 min. This process generated reactive oxygen species, resulting in endothelial damage and subsequent thrombus formation. Post-illumination, the scalp was sutured, and mice were placed on a warming pad for recovery. Cerebral ischemia severity was evaluated using the LSP imaging system, and the 15-day survival rates after ischemia induction were recorded.

The test system of test [2] is human plasma, intrinsic clotting cascade. The experiment in a line: Activated partial thromboplastin time (APTT). Type of test: biochemical. The following applies: GC38 10 μM; human plasma 20 μL, pre-incubation 5 min at 37 °C, APTT reagent 5 min, CaCl2; scattered light; mean, n = 3. Here is the method: APTT and PT were measured with commercially available kits according to the manufacturer’s instructions. For APTT determination, 20 μL human plasma was pre-incubated with GC38 (0.1, 1, and 10 µM) at 37 °C for 5 min, and then 30 μL APTT reagent was added and incubated for another 5 min. Subsequently, 40 μL pre-warmed CaCl2 (37 °C) was added to initiate the intrinsic clotting cascade. The intensity of the scattered light was monitored until the signals reached saturation. For PT determination, 20 μL human plasma was pre-incubated with GC38 (0.1, 1, and 10 µM) at 37 °C for 5 min. Then, 75 μL PT reagent was added to initiate the extrinsic clotting cascade. The intensity of the scattered light was monitored until the signals reached saturation. The coagulation time (APTT or PT) was defined as the time point at which the scattered light signal reached the midpoint between the baseline and maximum amplitude. All concentrations were tested in triplicate. Results are shown as mean values, and the time at maximum reactive velocity was also reported.

For test [3], the target named is T1, Human Activated Protein C (APC-1.0) (Homo sapiens, UniProt P04070).
T1 construct: purchased Enzyme Research Laboratories, Inc., South Bend, IN, USA APC-1.0
The experiment in a line: Bio-layer interferometry (BLI) binding. Conditions: Octet R2, SA biosensors, biotinylated APC 10 µg/mL, GC38 3.125-50 μM, PBS with 0.02% Tween-20, association 300 s, dissociation 180 s, average of three, read-out: dissociation constant (KD). An excerpt:
Human Activated Protein C (APC-1.0) was purchased from Enzyme Research Laboratories, Inc., South Bend, IN, USA. […] Activated Partial Thromboplastin Time (APTT) Test Kit (TC0306) was bought from Senkey Biotechnology Co., Ltd., Kunming, China. Prothrombin Time (PT) Test Kit (GMS10176) was purchased from GENMED Scientifics Inc., Shanghai, China. Streptavidin (SA) Biosensors (18-5019) were obtained from Sartorius AG, Göttingen, Lower Saxony, Germany. PBS (21-040-CVC) was bought from Corning Incorporated, Corning, NY, USA. Tween-20 (BS361B) was purchased from Biosharp Life Sciences, Hefei, Anhui, China. Trifluoroacetic acid (TFA, T818778-500ml, CAS: 76-05-1) and CaCl2 (C805225) were obtained from Macklin Biochemical Co., Ltd., Shanghai, China. L-oxidized glutathione (GSSG, V900363), Rose Bengal Dye (content 95%, CAS: 632-69-9, 330000-5G), and HEPES (V900477-500G) were purchased from Sigma-Aldrich LLC, St. Louis, MO, USA (Shanghai branch: Sigma-Aldrich Shanghai Trading Co., Ltd., Shanghai, China). […]
The binding affinity between APC and GC38 was measured using the Octet® R2 system (ForteBio, Fremont, CA, USA) with Streptavidin (SA) biosensors. […] Data were acquired and analyzed using Octet® Data Acquisition and Analysis software version 8.2. […]
(Biolayer interferometry detects binding as a change in optical thickness at a sensor tip.)

As to `CSCC[C@@H]1NC(=O)[C@H](CC(N)=O)NC(=O)CNC(=O)CNC(=O)[C@H](Cc2c[nH]cn2)NC(=O)[C@H](CCCNC(=N)N)NC(=O)CNC(=O)[C@@H]2CSSC[C@@H]3NC(=O)[C@H](CCCNC(=N)N)NC(=O)[C@H](C)NC(=O)CNC(=O)[C@H](CCCCN)NC(=O)CNC(=O)[C@H](CO)NC(=O)[C@@H](NC(=O)CN)CSSC[C@H](NC(=O)[C@H](CSSC[C@@H](C(=O)N[C@@H](CCC(=O)O)C(=O)N[C@@H](Cc4c[nH]c5ccccc45)C(=O)N[C@@H](CC(N)=O)C(=O)N[C@@H](Cc4c[nH]c5ccccc45)C(=O)N[C@@H](CCCCN)C(=O)N[C@H](C(=O)NCC(=O)O)[C@@H](C)O)NC(=O)[C@H](CO)NC(=O)[C@H](CCCCN)NC(=O)[C@H](Cc4ccc(O)cc4)NC1=O)NC(=O)[C@H](CCCCN)NC(=O)[C@H](CO)NC(=O)[C@@H]1CCCN1C(=O)[C@H](C)NC3=O)C(=O)N[C@@H](CO)C(=O)NCC(=O)N[C@@H](CC(C)C)C(=O)N[C@@H](CO)C(=O)N2` [GC38] (HELM PEPTIDE1{G.C.S.G.K.G.A.R.C.A.P.S.K.C.C.S.G.L.S.C.G.R.H.G.G.N.M.Y.K.S.C.E.W.N.W.K.T.G}$PEPTIDE1,PEPTIDE1,2:R3-15:R3|PEPTIDE1,PEPTIDE1,9:R3-20:R3|PEPTIDE1,PEPTIDE1,14:R3-31:R3$$$V2.0), the “blood flow reduction (cerebral)” value in test [1] (GC38 2 mg/kg i.v. 10 min before surgery) is 22.0%; in test [1] (GC38 4 mg/kg i.v. 10 min before surgery) it was 6.4%. Also, in test [1] (GC38 4 mg/kg i.v.), the “microvascular occlusion and ischemic lesions” value was “delayed microvascular occlusion and alleviated the formation of ischemic lesions”. Besides, in test [1] (versus untreated group), the 15-day survival rate entry is listed as “improved the 15-day survival rate of mice”. The “APTT extension versus control” value in test [2] is reported as 1.4 fold. In addition, in test [3], the Kd (in general, the concentration at which binding is half-saturated) was 6.16 µM.

(Values after publication PMC12564639, “Discovery of a Novel Anticoagulant Cystine Knot Peptide from Spider Venom Gland Transcriptome” (International Journal of Molecular Sciences, 2025).)
